Consider two compounds from patent US20260132103A1, “Bumetanide Derivatives for the Therapy of Stroke and Other Neurological Diseases/Disorders Involving NKCCs” (University of Pittsburgh - Of the Commonwealth System of …, priority 2018, published 2026).

Assay [1] has as its system transient focal cerebral ischemia (tMCAO) in mice. Nature of the assay: Corner test after tMCAO. The format is in vivo, mouse. The note with it: 1-14 days after tMCAO. The source says: FIGS. 2A-2D: Efficacy of NKCC1 inhibitors on improving neurological function in mice after tMCAO (see Example 3). (A) Neurological score, (B) corner test, (C) foot-fault test, and (D)-(E) adhesive tape test during 1-14 day after tMCAO. Data are mean±SD, n=4-9. *p<0.05 for DMSO vs STS66, **p<0.05 for DMSO vs STS5, ***p<0.05 for DMSO vs BMT, #p<0.05 for BMT vs STS66, ###p<0.05 for STS5 vs STS66.
Transient focal cerebral ischemia was induced in mice by intraluminal occlusion of the left middle cerebral artery (MCA) for 50 min as described previously (Chen H et al., 2005). Mice were anesthetized with 3% isoflurane in 70%: 30% N2O/O2 until they were unresponsive to the tail pinch test. Animals were then fitted with a nose cone blowing 1.5% isoflurane for anesthesia maintenance. The left common carotid artery was exposed and the occipital artery branches of the external carotid artery were isolated and coagulated. The internal carotid artery was isolated and the extracranial branch was dissected and ligated. […]
Neurological functional deficits in mice were determined by the corner test. […]
The numbers of left and right turns of each mouse during 10 trials were recorded, and turning movements that were not part of a rearing movement were not scored (Zhang L, et al., 2002).

The test system of assay [2] is permanent focal cerebral ischemia (pdMCAO) in AngII-induced hypertensive mice. The assay is described as follows: Brain infarct volume and swelling after pdMCAO in AngII-induced hypertensive mice. The format is in vivo, mouse. The note with it: 24 h post-pdMCAO, i.p., half dose at 3 h and 8 h after pdMCAO. The protocol: FIG. 3: Effects of NKCC1 inhibitors against the worsened ischemic stroke in AngII-induced hypertensive mice after pdMCAO (see Example 3). (A) Experimental protocol in AngII-induced hypertensive C57/B6 mice. Permanent distal middle cerebral artery occlusion (pdMCAO) was induced in mice at day 14 post-AngII infusion. DMSO, BMT or STS66 was administered in mice via i.p. with the initial half dose at 3 h and the second half dose at 8 h after pdMCAO. (B) Representative TTC-stained mouse coronal brain sections at 2-8 mm posterior of the frontal pole were shown. TTC staining was performed at 24 h post pdMCAO. Scale: 5 mm. (C) Brain infarct volume was calculated. Data are mean±SD. Saline (n=4), AngII (n=5); *p<0.05 vs. saline control.
Permanent focal cerebral ischemia was induced by permanent occlusion of the distal middle cerebral artery (pdMCAO) in mice (Suenaga J, et al., 2015). Under anesthesia as described above, a skin incision at the midline of the neck was made. After being separated from the vagal nerve, the left CCA was exposed and occluded by ligation and the skin was sutured. Another skin incision (1 cm) was made between the left eye and the ear using fine operation scissors. The temporal muscle was identified and detached from the skull in its apical and dorsal part without totally removing the muscle by using the forceps. The MCA below the transparent skull in the rostral part of the temporal area, dorsal to the retro-orbital sinus was identified. If the MCA bifurcation is not visible (due to an anatomical normal variation), the vessel most rostral was identified. The skull above the MCA branch was thinned out with the drill until it has a thin and translucent texture. The artery, proximal and distal to the MCA bifurcation, was coagulated with the electrocoagulation forceps (in a bipolar mode at 7 W). The temporal muscle was relocated to its position and the burr hole was covered with wax and the skin wound was sutured and infiltrated with analgesia bupivacaine (100 μl 0.25%) topically. The animal was placed in a cage and monitored for recovery from anesthesia. […]
At 24 h post-reperfusion, mice were anesthetized with 5% isoflurane and then decapitated. […] Ischemic lesions were traced in each slice in a blinded manner, and the total volume of infarction was calculated with correction for edema, as described by Swanson et al., 1990 using ImageJ software. […] Brain swelling was determined with the following formula. […]
The efficacy of NKCC1 inhibitors was then tested in AngII-induced hypertensive mice after permanent MCAO model (pdMCAO), which is more clinically relevant to the majority ischemic stroke patients (McBride D W, et al., 2017). Brain infarct volume and swelling were measured at 24 h after pdMCAO. […]

`CCCCNc1cc(CNCC(F)(F)F)cc(S(N)(=O)=O)c1Oc1ccccc1` [STS66, 3-(Butylamino)-2-phenoxy-5-[(2,2,2-trifluoroethylamino)methyl]benzenesulfonamide]: in assay [1], the corner test outcome is on record as “definite superior effects at every testing day”. Further, in assay [2], the “brain swelling (edema)” value turned out to be 2.4±1.1% and the infarct volume is 13.3±2.5 mm^3.
For the compound `CCCCNc1cc(C(=O)O)cc(S(N)(=O)=O)c1Oc1ccccc1` [BMT, 3-(butylamino)-4-phenoxy-5-sulfamoylbenzoic acid, reference compound], the corner test outcome in assay [1] was “exhibited neuroprotective effects”. Further, in assay [2], the “brain swelling (edema)” value came to 7.1±1.1% and the infarct volume is 22.4±2.9 mm^3.
